In patent publication US6028197A, “Dibenzo[a,g]quinolizinium derivatives and the salts thereof” (Hanwha Corporation, priority 1998, dated 2000) one finds IC50 data, which are given here for twelve compounds.

This experiment concerns the target T1, sterol 14-reductase (Rattus norvegicus, UniProt A0ACM8Q6X4).
T1 construct: microsome which was used as an enzyme source of sterol 14-reductase; from tissue; host or cells: liver microsomes of male Sprague-Dawley rats fed lovastatin and cholestyramine
T1 sequence (A0ACM8Q6X4 1-418): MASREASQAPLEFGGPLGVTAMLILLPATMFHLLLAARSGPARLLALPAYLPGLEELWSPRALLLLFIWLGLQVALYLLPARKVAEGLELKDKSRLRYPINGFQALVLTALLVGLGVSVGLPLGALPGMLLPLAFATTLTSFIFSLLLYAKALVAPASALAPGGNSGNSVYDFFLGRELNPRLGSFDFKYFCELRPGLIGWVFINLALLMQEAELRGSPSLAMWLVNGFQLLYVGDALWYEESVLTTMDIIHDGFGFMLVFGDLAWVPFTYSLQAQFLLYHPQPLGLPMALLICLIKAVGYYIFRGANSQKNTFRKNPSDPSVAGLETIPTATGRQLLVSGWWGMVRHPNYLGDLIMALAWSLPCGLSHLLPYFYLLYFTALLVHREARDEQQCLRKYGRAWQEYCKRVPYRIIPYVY
Nature of the experiment: Inhibition of sterol 14-reductase in rat liver microsomes. As to conditions: read-out: Enzyme Activity (relative in vitro activity for sterol 14-reductase, IC50 class). It is filed as biochemical. Background: Liver microsomes are a subcellular fraction often used to study metabolism.

Where two headings read alike, the source gives them in different places.

Description: 20 Male Sprague-Dawley rats weighing from 150 to 250 g have been fed for 7 days with a diet containing 0.1% (w/w) Lovastatin and 5% (w/w) Cholestyramine. The animals were fasted for 12 hours before excising liver tissues and then sacrificed by decapitation at midnight. An aqueous solution containing 0.25M of sucrose was injected into the hepatic portal vein to remove all the blood within the liver, and then, the liver was excised. The liver was homogenated with two volumes of buffer solution A (0.1M potassium phosphate, 1 mM reduced glutathione, 0.5 mM EDTA, 20% (v/v) glycerol, pH 7.4) by repeating pestles over 10 times and then, centrifuged with 900×g for 5 minutes to give a supernatant. The supernatant was centrifuged with 12,000×g for 20 minutes. The supernatant obtained was ultracentrifuged with 105,000×g for 90 minutes to give a microsome which was used as an enzyme source of sterol 14-reductase. Assay for sterol 14-reductase was carried out as follows:
60 mmol of 4,4-dimethyl-5α-cholesta-7,14-dien-3β-ol and 5,6-dihydrodibenzo-[a,g]quinolizinium salts (compound no. 2) dissolved in DMSO were added to an assay mixture (total volume 1.0 ml) containing 2 mg of the microsomal protein, 2 mM of NADPH and 25 mg of glucose plus 20 units of glucose oxidase with preincubations under nitrogen at 37° C. for 4 min. unless otherwise specified to establish anaerobic condition. Buffer A (0.1M potassium phosphate buffer, pH 7.4, including 1 mM reduced glutathione, 0.5 mM EDTA, and 20% (v/v) glycerol) used for incubation had been equilibrated with nitrogen, and nitrogen was exchanged for air in all sealed reaction flasks prior to the start of incubations. Incubation of the complete mixture was carried out anaerobically in sealed flasks for 10 min at 37° C. unless otherwise indicated. Incubations were terminated by the addition of 1 ml of ethanolic KOH followed by heating under reflux for 10 min. Sterols were extracted four times with 4 ml of petroleum ether, and the solvent was evaporated to dryness under a nitrogen stream. The resulting residue was dissolved in 200-500 μl of n-hexane for quantification by GLC at high sensitive attenuation. The activity of sterol 14-reductase was determined with the amount of the substrate wherein the double bonds of 14-carbon were reduced (for the amount reduced by 1 mg of the microsome protein for 1 minute).

For orientation: IC50 means the concentration that gives 50% inhibition. As to `CCOc1cc2c(cc1OCC)-c1c(CC)c3ccc(OC)c(OCc4c(F)c(F)c(C(F)(F)F)c(F)c4F)c3c[n+]1CC2` [Compound No. 57, 5,6-dihydro-2,3-diethoxybenzo[a]-9-(2,3,5,6-tetrafluoro-4-trifluoromethyl)benzyloxy-13-ethyl-10-methoxy-benzo[g]-quinolizinium chloride], the IC50 is below 1 µM.
For the compound `CCc1c2[n+](cc3c(OCc4ccc(Cl)nc4)c(OC)ccc13)CCc1cc(OC)c(OC)cc1-2` [Compound No. 17, 5,6-dihydro-2,3-dimethoxybenzo[a]-9-(6-chloropyridine-3-yl)methoxy-13-ethyl-10-methoxybenzo[g]quinoli-zinium chloride], the IC50 is below 1 µM.
On to `CCc1c2[n+](cc3c(OCc4cc(OC)c(OC)c(OC)c4)c(OC)ccc13)CCc1cc(OC)c(OC)cc1-2` [Compound No. 37, 5,6-dihydro-2,3-dimethoxybenzo[a]-13-ethyl-10-methoxy-9-(3,4,5-trimethoxy)benzyloxybenzo[g]quinolizinium chloride], for which the IC50 was above 100 µM.
As to `CCCCCCCCCCCCOc1c(OC)ccc2c(CC)c3[n+](cc12)CCc1cc2c(cc1-3)OCO2` [Compound No. 45, 5,6-dihydro-2,3-methylenedioxybenzo[a]-9-dodecoxy-13-ethyl-10-methoxybenzo[g]quinolizinium iodide], the IC50 was 10 to 100 µM.
On the same count and under the same terms, as for `CCCOc1cc2c(cc1OCCC)-c1c(CC)c3ccc(OCCC)c(OCc4ccc(C(C)(C)C)cc4)c3c[n+]1CC2` [Compound No. 66, 5,6-dihydro-2,3-dipropoxybenzo[a]-9-[4-(tert-butyl)benzyloxy]-13-ethyl-10-propoxybenzo[g]quinolizinium chloride], the figure is 10 to 100 µM; as for `CCc1c2[n+](cc3c(OCc4cccc(Oc5ccccc5)c4)c(OC)ccc13)CCc1cc(OC)c(OC)cc1-2` [Compound No. 21, 5,6-dihydro-2,3-dimethoxybenzo[a]-13-ethyl-10-methoxy-9-(3-phenoxy)benzyloxybenzo[g]quinolizinium chloride], above 100 µM; as for `CCc1c2[n+](cc3c(OCc4ccc(OC)cc4)c(OC)ccc13)CCc1cc(OC)c(OC)cc1-2` [Compound No. 22, 5,6-dihydro-2,3-dimethoxybenzo[a]-13-ethyl-10-methoxy-9-(4-methoxy)benzyloxybenzo[g]quinolizinium chloride], above 100 µM.
Still for that read-out and setting: the result for `CCOc1cc2c(cc1OCC)-c1c(CC)c3ccc(OC)c(OCc4c(F)c(F)c(F)c(F)c4F)c3c[n+]1CC2` [Compound No. 56, 5,6-dihydro-2,3-diethoxybenzo[a]-13-ethyl-10-methoxy-9-(2,3,4,5,6-pentafluoro)benzyloxybenzo[g]quinolizinium chloride] reads below 1 µM.
Turning to `CCc1c2[n+](cc3c(OCc4ccccc4C(F)(F)F)c(OC)ccc13)CCc1cc(OC)c(OC)cc1-2` [Compound No. 33, 5,6-dihydro-2,3-dimethoxybenzo[a]-13-ethyl-10-methoxy-9-(2-trifluoromethyl)benzyloxybenzo[g]quinolizinium chloride], under “microsomes”, the IC50 was above 100 µM.
As to `CCc1c2[n+](cc3c(OCc4ccc(OC(F)(F)F)cc4)c(OC)ccc13)CCc1cc(OC)c(OC)cc1-2` [Compound No. 42, 5,6-dihydro-2,3-dimethoxybenzo[a]-13-ethyl-10-methoxy-9-(4-trifluoromethoxy)benzyloxybenzo[g]quinolizinium chloride], the IC50 lay in the range of 10 to 100 µM.
On to `CCc1c2[n+](cc3c(OCc4ccc(Cl)nc4)c(OC)ccc13)CCc1cc3c(cc1-2)OCO3` [Compound No. 54, 5,6-dihydro-2,3-methylenedioxybenzo[a]-9-(6-chloropyridinyl-3-yl)methoxy-13-ethyl-10-methoxybenzo[g]quinolizinium iodide], for which the IC50 lay in the range of 10 to 100 µM.
In the case of `CCc1c2[n+](cc3c(OCc4ccc(C)c(C)c4)c(OC)ccc13)CCc1cc(OC)c(OC)cc1-2` [compound 27, 5,6-dihydro-2,3-dimethoxybenzo[a]-9-(3,4-dimethyl)benzyloxy-13-ethyl-10-methoxybenzo[g]quinolizinium chloride], the IC50 was above 100 µM.
